Measured values published in US7960377B2 (priority 2008, dated 2011).
Read-outs that look alike come from different tables or passages of the source. Marks after values point to notes of the source that are not given here.

Tests used:
Assay in all cases: cell-based
human CB1 receptor = human CB1 receptor (Homo sapiens, UniProt P21554)
rat CB2 receptor = target: T1, rat CB2 receptor (Rattus norvegicus, UniProt Q9QZN9); type: cell-based; conditions: for inverse agonist mark, rat CB2 receptor: asterisk at the compound number
T1 sequence (Q9QZN9 1-360): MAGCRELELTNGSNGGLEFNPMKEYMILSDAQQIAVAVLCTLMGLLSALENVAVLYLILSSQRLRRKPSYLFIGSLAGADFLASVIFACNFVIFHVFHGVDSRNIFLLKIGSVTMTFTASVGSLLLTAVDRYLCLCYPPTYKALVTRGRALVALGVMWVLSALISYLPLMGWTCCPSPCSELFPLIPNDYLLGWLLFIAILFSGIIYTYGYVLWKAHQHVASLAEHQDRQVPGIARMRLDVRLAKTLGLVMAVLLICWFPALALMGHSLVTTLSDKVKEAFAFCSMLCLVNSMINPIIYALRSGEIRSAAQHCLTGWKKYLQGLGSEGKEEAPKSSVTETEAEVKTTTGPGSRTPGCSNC

human CB2 receptor = human CB2 receptor (Homo sapiens, UniProt P34972); type: cell-based; conditions: for inverse agonist mark, human CB2 receptor: asterisk at the compound number
[1] = change in intracellular cAMP, CHO-K1 hCB2 cells, class AR, read-out: EC50 values for human CB2 receptor

Sequence of human CB2 receptor (P34972 whole entry): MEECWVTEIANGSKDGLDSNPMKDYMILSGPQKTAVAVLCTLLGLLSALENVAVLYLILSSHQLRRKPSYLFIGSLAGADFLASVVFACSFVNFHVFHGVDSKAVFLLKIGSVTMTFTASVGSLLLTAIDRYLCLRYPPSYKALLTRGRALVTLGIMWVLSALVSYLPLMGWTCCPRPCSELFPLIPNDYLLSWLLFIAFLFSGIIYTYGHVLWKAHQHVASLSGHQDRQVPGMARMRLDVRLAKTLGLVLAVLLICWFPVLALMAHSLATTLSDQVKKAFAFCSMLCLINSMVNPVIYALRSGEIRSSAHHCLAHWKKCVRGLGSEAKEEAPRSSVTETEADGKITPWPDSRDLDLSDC
Sequence of human CB1 receptor (P21554 whole entry): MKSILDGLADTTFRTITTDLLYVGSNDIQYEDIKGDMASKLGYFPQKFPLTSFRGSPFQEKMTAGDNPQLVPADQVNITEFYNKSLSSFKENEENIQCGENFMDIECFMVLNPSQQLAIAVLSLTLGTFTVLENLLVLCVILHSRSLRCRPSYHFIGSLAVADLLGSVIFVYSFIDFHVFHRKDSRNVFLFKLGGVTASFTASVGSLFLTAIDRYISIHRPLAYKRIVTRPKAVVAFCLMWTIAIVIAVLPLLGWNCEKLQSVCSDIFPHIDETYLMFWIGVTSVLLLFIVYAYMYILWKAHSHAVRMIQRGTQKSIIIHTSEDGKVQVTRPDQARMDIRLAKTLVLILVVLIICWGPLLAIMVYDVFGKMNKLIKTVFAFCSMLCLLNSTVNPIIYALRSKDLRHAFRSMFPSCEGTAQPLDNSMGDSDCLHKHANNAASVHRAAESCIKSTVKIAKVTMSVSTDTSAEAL

Q: Which EC50 (human CB1 receptor) does the source give for `CC(C)(C)NC(=O)c1cnc2c(c1)N(S(=O)(=O)N1CC(F)(F)C1)CCO2` [Example 193, N-tert-butyl-1-(3,3-difluoroazetidin-1-ylsulfonyl)-2,3-dihydro-1H-pyrido[2,3-b][1,4]oxazine-7-carboxamide] here?
A: > 30 µM

Q: What about the EC50 (rat CB2 receptor) of the same compound?
A: ≤ 0.03 µM

Q: And the EC50 (human CB2 receptor)?
A: > 30 µM

Q: With `O=C(O)[C@H]1CCCCN1C(=O)c1cnc2c(c1)N(S(=O)(=O)c1ccc(C(F)(F)F)cc1)CCO2` [Example 78, (R)-1-(1-(4-(trifluoro-methyl)phenylsulfonyl)-2,3-dihydro-1H-pyrido-[2,3-b][1,4]oxazine-7-carbonyl)piperidine-2-carboxylic acid] as the compound, how does the EC50 (human CB1 receptor) read?
A: > 30 µM

Q: And the EC50 (rat CB2 receptor)?
A: > 30 µM

Q: And the EC50 (human CB2 receptor; [1])?
A: > 30 µM

Q: For `CN(C)S(=O)(=O)N1CCN(C(=O)c2cnc3c(c2)N(S(=O)(=O)c2ccc(Cl)c(Cl)c2)CCO3)CC1` [Example 119, 4-(1-(3,4-dichlorophenylsulfonyl)-2,3-dihydro-1H-pyrido [2,3-b][1,4]oxazine-7-carbonyl)-N,N-dimethyl piperazine-1-sulfonamide], which EC50 (human CB1 receptor) is on record?
A: > 30 µM

Q: And the EC50 (rat CB2 receptor)?
A: > 30 µM

Q: And the EC50 (human CB2 receptor; [1])?
A: > 30 µM

Q: For `O=C(NC1(C(=O)O)CC1)c1cnc2c(c1)N(S(=O)(=O)c1ccc(C(F)(F)F)cc1)CCO2` [Example 206, 1-(1-(4-(trifluoromethyl)phenylsulfonyl)-2,3-dihydro-1H-pyrido[2,3-b][1,4]oxazine-7-carboxamido)cyclopropanecarboxylic acid], which EC50 (human CB1 receptor) is on record?
A: > 30 µM

Q: And the EC50 (rat CB2 receptor)?
A: > 30 µM

Q: What about the EC50 (human CB2 receptor; [1]) of the same compound?
A: > 30 µM

Q: With `CCC(C)(C)NC(=O)c1cnc2c(c1)N(S(=O)(=O)c1ccc(C(F)(F)F)cc1)CCO2` [Example 66, N-tert-pentyl-1-(4-(trifluoromethyl)phenylsulf-onyl)-2,3-dihydro-1H-pyrido[2,3-b][1,4]oxazine-7-carboxamide] as the compound, how does the EC50 (human CB1 receptor) read?
A: > 30 µM

Q: And the EC50 (rat CB2 receptor)?
A: ≤ 0.03 µM

Q: And the EC50 (human CB2 receptor)?
A: ≤ 0.03 µM

Q: Which results are given for `CC(C)(C)NC(=O)c1cnc2c(c1)N(Cc1ccc(F)cc1)C(=O)CO2` [Example 218, N-tert-butyl-1-(4-fluorobenzyl)-2-oxo-2,3-dihydro-1H-pyrido[2,3-b][1,4]oxazine-7-carboxamide]?
A: EC50 (human CB1 receptor): > 30 µM; EC50 (rat CB2 receptor): ≤ 0.03 µM; EC50 (human CB2 receptor): ≤ 0.03 µM

Q: How did the EC50 (human CB1 receptor) turn out when `CC(C)(C)NC(=O)c1cnc2c(c1)N(S(=O)(=O)c1ccc(Cl)c(Cl)c1)CCO2` [Example 55, N-tert-butyl-1-(3,4-dichlorophenylsulfonyl)-2,3-dihydro-1H-pyrido[2,3-b][1,4]oxazine-7-carboxamide] was run?
A: > 30 µM

Q: And the EC50 (rat CB2 receptor)?
A: ≤ 0.03 µM

Q: And the EC50 (human CB2 receptor)?
A: ≤ 0.03 µM

Q: With `O=C(c1cnc2c(c1)N(S(=O)(=O)c1ccc(C(F)(F)F)cc1)CCO2)N1CCS(=O)(=O)CC1` [Example 52, 1′,1′-dioxide-thiomorpholino(1-(4-(trifluoromethyl)phenylsulf-onyl)-2,3-dihydro-1H-pyrido[2,3-b][1,4]oxazin-7-yl)methanone] as the compound, how does the EC50 (human CB1 receptor) read?
A: > 30 µM

Q: And the EC50 (rat CB2 receptor)?
A: > 30 µM

Q: What about the EC50 (human CB2 receptor; [1]) of the same compound?
A: > 30 µM

Q: What does the source list for `CCC(C)(C)NC(=O)c1cnc2c(c1)N(S(=O)(=O)N1CCC(N3CCCC3)CC1)CCO2` [Example 177, N-tert-pentyl-1-(4-(pyrrolidin-1-yl)piperidin-1-ylsulfonyl)-2,3-dihydro-1H-pyrido[2,3-b][1,4]oxazine-7-carboxamide]?
A: EC50 (human CB1 receptor): > 30 µM; EC50 (rat CB2 receptor): > 30 µM; EC50 (human CB2 receptor): > 30 µM

Q: Which results are given for `CNC(=O)[C@@H](NC(=O)c1cnc2c(c1)N(S(=O)(=O)c1ccc(F)cc1)CCO2)C(C)(C)C` [Example 15, (S)-N-(3,3-dimethyl-1-(methylamino)-1-oxobutan-2-yl)-1-(4-fluorophenyl-sulfonyl)-2,3-dihydro-1H-pyrido [2,3-b][1,4]oxazine-7-carboxamide]?
A: EC50 (human CB1 receptor): > 30 µM; EC50 (rat CB2 receptor): ≤ 0.03 µM; inverse agonist mark, rat CB2 receptor (rat CB2 receptor): 2, 3, 6*, 7, 8, 10, 11, 12, 15*, 20, 21, 22, 23, 24, 25, 26, 27, 33, 39,; inverse agonist mark, human CB2 receptor (human CB2 receptor): 1, 5, 9, 12, 14, 15*, 28, 29, 34, 35, 36, 37, 41, 44, 49, 50, 51, 54, 56,

Q: Which EC50 (human CB1 receptor) does the source give for `O=C(c1cnc2c(c1)N(S(=O)(=O)c1ccccc1)CCO2)N1CCOCC1` [Example 4, morpholino(1-(phenyl-sulfonyl)-2,3-dihydro-1H-pyrido[2,3-b][1,4]oxazin-7-yl)methanone] here?
A: > 30 µM

Q: And the EC50 (rat CB2 receptor)?
A: > 30 µM

Q: And the EC50 (human CB2 receptor; [1])?
A: > 30 µM

Q: Which EC50 (human CB1 receptor) does the source give for `CC(C)(CO)NC(=O)c1cnc2c(c1)N(S(=O)(=O)N1CCC(c3ccccc3)CC1)CCO2` [Example 160, N-(1-hydroxy-2-methylpropan-2-yl)-1-(4-phenylpiperidin-1-ylsulfonyl)-2,3-dihydro-1H-pyrido[2,3-b][1,4]oxazine-7-carboxamide] here?
A: > 30 µM

Q: What about the EC50 (rat CB2 receptor) of the same compound?
A: > 30 µM

Q: And the EC50 (human CB2 receptor)?
A: > 30 µM

Q: `CC(C)(C)N(CCCN)C(=O)c1cnc2c(c1)N(S(=O)(=O)c1ccc(C(F)(F)F)cc1)CCO2` [Example 45, N-(3-aminopropyl)-N-tert-butyl-1-(4-(trifluoromethyl)phenylsulf-onyl)-2,3-dihydro-1H-pyrido[2,3-b][1,4]oxazine-7-carboxamide] was tested. Which EC50 (human CB1 receptor) did it give?
A: > 30 µM

Q: And the EC50 (rat CB2 receptor)?
A: > 30 µM

Q: And the EC50 (human CB2 receptor; [1])?
A: > 30 µM

Q: Which results are given for `CC(C)(C)NC(=O)c1cnc2c(c1)N(S(=O)(=O)c1ccc(Cl)s1)CCO2` [Example 94, N-tert-butyl-1-(5-chlorothiophen-2-ylsulfonyl)-2,3-dihydro-1H-pyrido[2,3-b][1,4]oxazine-7-carboxamide]?
A: EC50 (human CB1 receptor): > 30 µM; EC50 (rat CB2 receptor): > 30 µM; EC50 (human CB2 receptor; [1]): > 30 µM

Q: What does the source list for `CNC(=O)[C@@H](NC(=O)c1cnc2c(c1)N(S(=O)(=O)c1ccccc1)CCO2)C(C)(C)C` [Example 6, (S)-N-(3,3-dimethyl-1-(methylamino)-1-oxobutan-2-yl)-1-(phenyl-sulfonyl)-2,3-dihydro-1H-pyrido[2,3-b][1,4]oxazine-7-carboxamide]?
A: EC50 (human CB1 receptor): > 30 µM; EC50 (rat CB2 receptor): ≤ 0.03 µM; inverse agonist mark, rat CB2 receptor (rat CB2 receptor): 2, 3, 6*, 7, 8, 10, 11, 12, 15*, 20, 21, 22, 23, 24, 25, 26, 27, 33, 39,; EC50 (human CB2 receptor): > 30 µM

Q: What does the source list for `O=C(N[C@@H]1CCCC[C@H]1O)c1cnc2c(c1)N(S(=O)(=O)c1ccc(Cl)c(Cl)c1)CCO2` [Example 135, 1-(3,4-dichlorophenyl-sulfonyl)-N-((1R,2R)-2-hydroxycyclohexyl)-2,3-dihydro-1H-pyrido[2,3-b][1,4]oxazine-7-carboxamide]?
A: EC50 (human CB1 receptor): > 30 µM; EC50 (rat CB2 receptor): ≤ 0.03 µM; EC50 (human CB2 receptor): > 30 µM

Q: What does the source list for `CN(CC(C)(C)CO)C(=O)c1cnc2c(c1)N(S(=O)(=O)N1CCc3ccccc3C1)CCO2` [Example 192, 1-(3,4-dihydroisoquinolin-2(1H)-ylsulfonyl)-N-(3-hydroxy-2,2-dimethyl-propyl)-N-methyl-2,3-dihydro-1H-pyrido[2,3-b][1,4]oxazine-7-carboxamide]?
A: EC50 (human CB1 receptor): > 30 µM; EC50 (rat CB2 receptor): > 30 µM; EC50 (human CB2 receptor): > 30 µM

Q: `CS(=O)(=O)N1CCN(C(=O)c2cnc3c(c2)N(S(=O)(=O)c2ccc(Cl)c(Cl)c2)CCO3)CC1` [Example 116, (1-(3,4-dichloro-phenylsulfonyl)-2,3-dihydro-1H-pyrido[2,3-b][1,4]oxazin-7-yl)(4-(methylsulfonyl)piperazin-1-yl)methanone] was tested. Which EC50 (human CB1 receptor) did it give?
A: > 30 µM

Q: What about the EC50 (rat CB2 receptor) of the same compound?
A: > 30 µM

Q: What about the EC50 (human CB2 receptor; [1]) of the same compound?
A: > 30 µM

Q: Which results are given for `CC(C)(C)c1cc(NC(=O)c2cnc3c(c2)N(S(=O)(=O)N2CCC(c4ccccc4)CC2)CCO3)no1` [Example 162, N-(5-tert-butylisoxazol-3-yl)-1-(4-phenylpiperidin-1-ylsulfonyl)-2,3-dihydro-1H-pyrido[2,3-b][1,4]oxazine-7-carboxamide]?
A: EC50 (human CB1 receptor): > 30 µM; inverse agonist mark, rat CB2 receptor (rat CB2 receptor): 108, 114, 117, 122, 126, 128, 129, 130, 141, 147, 162*, 165*, 179,; inverse agonist mark, human CB2 receptor (human CB2 receptor): 128, 129, 130, 132, 133, 140, 141, 142, 143, 147, 148, 149, 162*,

Q: With `CC(C)(CO)CNC(=O)c1cnc2c(c1)N(S(=O)(=O)N1CCc3ccccc3C1)CCO2` [Example 191, 1-(3,4-dihydroisoquinolin-2(1H)-ylsulfonyl)-N-(3-hydroxy-2,2-dimethylpropyl)-2,3-dihydro-1H pyrido[2,3-b][1,4]oxazine-7-carboxamide] as the compound, how does the EC50 (human CB1 receptor) read?
A: > 30 µM

Q: And the EC50 (rat CB2 receptor)?
A: ≤ 0.03 µM

Q: And the EC50 (human CB2 receptor)?
A: > 30 µM

Q: For `CC(C)(C)c1cc(NC(=O)c2cnc3c(c2)N(S(=O)(=O)N2CCC(C(F)(F)F)CC2)CCO3)on1` [Example 153, N-(3-tert-butylisoxazol-5-yl)-1-(4-(trifluoromethyl)piperidin-1-ylsulfonyl)-2,3-dihydro-1H-pyrido[2,3-b][1,4]oxazine-7-carboxamide], which EC50 (human CB1 receptor) is on record?
A: ≤ 0.3 µM

Q: And the EC50 (rat CB2 receptor)?
A: ≤ 0.03 µM

Q: What about the “inverse agonist mark, rat CB2 receptor” value (rat CB2 receptor) of the same compound?
A: 146, 148, 149, 150, 151, 152, 153*, 154*, 155, 156, 157, 163, 164,

Q: What about the EC50 (human CB2 receptor) of the same compound?
A: > 30 µM
